Test results taken from EP1123702A1, “ANALGESICS” (Eisai Co., Ltd., priority 1998, dated 2000).

How the values were obtained:
5HT2 = 5HT2 (Homo sapiens, UniProt P28223); assay: Serotonin (5HT) receptor binding action (RBA; in vitro), 5HT2; settings: method of JP98/01481 or JP-A 10-281752
5HT1A = biological target: T1, 5HT1A (Homo sapiens, UniProt P08908); assay: Serotonin (5HT) receptor binding action (RBA; in vitro), 5HT1A; settings: method of JP98/01481 or JP-A 10-281752
T1 sequence (P08908 1-422): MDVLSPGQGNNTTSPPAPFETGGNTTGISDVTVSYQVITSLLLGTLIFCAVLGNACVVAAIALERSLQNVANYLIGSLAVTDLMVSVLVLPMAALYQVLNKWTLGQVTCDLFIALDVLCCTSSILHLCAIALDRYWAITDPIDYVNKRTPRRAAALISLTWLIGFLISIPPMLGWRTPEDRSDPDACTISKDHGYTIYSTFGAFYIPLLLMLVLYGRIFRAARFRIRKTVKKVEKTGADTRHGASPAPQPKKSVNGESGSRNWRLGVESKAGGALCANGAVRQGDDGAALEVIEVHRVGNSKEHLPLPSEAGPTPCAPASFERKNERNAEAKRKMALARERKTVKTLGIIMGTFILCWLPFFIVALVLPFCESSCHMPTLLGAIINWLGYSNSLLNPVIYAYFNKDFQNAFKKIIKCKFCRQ

[1] = Muscle relaxing action (in vivo); settings: method of JP98/01481 or JP-A 10-281752
From the text: There are also shown a serotonin (5HT) receptor binding action (RBA; in vitro) and a muscle relaxing action (in vivo) measured according to a method described in JP98/01481 or JP-A 10-281752. (In the table, "n.t." means "not tested").

writhing behavior = assay: Analgesic action by a writhing method using acetic acid; assay type: in vivo, Male mice of a ddY strain; settings: sc; statistically minimum effective dose; 0.6% acetic acid ip 15 minutes after the drug, writhing counted for ten minutes; mice

5HT2, sequence (P28223 whole entry, species assumed): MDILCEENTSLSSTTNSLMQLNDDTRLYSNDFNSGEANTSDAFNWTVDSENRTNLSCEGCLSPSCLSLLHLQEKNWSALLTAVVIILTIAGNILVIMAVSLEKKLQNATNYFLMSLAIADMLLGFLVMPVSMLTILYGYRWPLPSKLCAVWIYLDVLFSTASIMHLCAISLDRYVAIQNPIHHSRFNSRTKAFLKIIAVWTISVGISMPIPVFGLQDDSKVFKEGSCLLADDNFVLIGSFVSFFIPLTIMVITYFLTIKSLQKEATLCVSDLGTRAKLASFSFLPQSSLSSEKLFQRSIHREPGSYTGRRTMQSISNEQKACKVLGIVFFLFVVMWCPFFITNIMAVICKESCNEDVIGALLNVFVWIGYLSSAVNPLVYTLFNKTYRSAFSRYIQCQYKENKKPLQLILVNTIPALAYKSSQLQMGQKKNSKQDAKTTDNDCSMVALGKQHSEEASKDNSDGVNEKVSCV

Row | Ki (5HT2) [nM] | Ki (5HT1A) [nM] | SMILES | Muscle-Relaxing Action (ip) ([1]; ip) [mg/kg] | Muscle-Relaxing Action (po) [1] [mg/kg] | Analgesic Action (minimum effective dose) (writhing behavior) [mg/kg]
1 | 1.4 | 54.9 | CCN1CCN(c2nc(-c3ccc(OCC(C)(C)O)cc3)cc3sccc23)CC1.Cl [(25), 4-(4-ethylpiperazin-1-yl)-6-[4-(2-hydroxy-2-methylpropoxy)phenyl]thieno[3,2-c]pyridine hydrochloride] | 0.3 | 1 | 10
2 | 16.9 | 15 | CCN1CCN(c2nc(-c3ccc(C(C)O)cc3)cc3sccc23)CC1.O=C(O)C(=O)O (stereo not drawn) [(26), 4-(4-ethylpiperazin-1-yl)-6-[4-(1-hydroxyethyl)phenyl]thieno[3,2-c]pyridine oxalate] | – | < 3 | 1
